Laboratory results reported in ChEMBL document CHEMBL1772970, “Potent bivalent Smac mimetics: effect of the linker on binding to inhibitor of apoptosis proteins (IAPs) and anticancer activity” (J Med Chem, 2011).
Calls of active or inactive are those of the source. No cut-off for these calls is given here.

Experiments:
[1] = target: T1, E3 ubiquitin-protein ligase XIAP (Homo sapiens, UniProt P98170); test: Competitive inhibition of His-tagged human XIAP BIR3 domain expressed in Escherichia coli BL21(DE3) after 2 to 3 hrs by fluorescence polarization assay
[2] = target: T1, E3 ubiquitin-protein ligase XIAP; test: Competitive inhibition of human XIAP linker BIR2-BIR3 domain expressed in Escherichia coli BL21(DE3) cells by fluorescence polarization-based assay
[3] = target: T1, E3 ubiquitin-protein ligase XIAP; test: biochemical
[4] = target: T1, E3 ubiquitin-protein ligase XIAP
MDA-MB-231 [5] = test: cells; conditions: Homo sapiens
MDA-MB-231 [6] = test: Antitumor activity against human MDA-MB-231 cells xenografted in SCID mouse assessed as tumor size at 5 mg/kg, iv administered on day 1 to 5 and 8 to 12 post tumor implantation measured on day 50 (reference value: 1136 mm'3); type: functional
MDA-MB-231 [7] = test: Antitumor activity against human MDA-MB-231 cells xenografted in SCID mouse assessed as inhibition tumor growth intravenously administered on day 1 to 5 and 8 to 12 post tumor implantation; type: functional, cell-based
Mus musculus [8] = test: Toxicity in SCID mouse xenografted with human MDA-MB-231 cells assessed as weight loss at 5 mg/kg, iv administered on day 1 to 5 and 8 to 12 post tumor implantation; type: organism-based; parameters: dose 5 mg/kg, route intravenous; conditions: in vivo
MDA-MB-231 [9] = conditions: Homo sapiens, 5 mg/kg
MDA-MB-231 [10] = test: Induction of apoptosis in human MDA-MB-231 cells assessed as cIAP2 degradation at 1 nM after 24 hrs by Western blotting; type: functional, cell-based
MDA-MB-231 [11] = test: Induction of apoptosis in human MDA-MB-231 cells assessed as cIAP1 degradation at 1 nM after 24 hrs by Western blotting; type: functional, cell-based
MDA-MB-231 [12] = test: Induction of apoptosis in human MDA-MB-231 cells assessed as PARP cleavage at 3 nM after 24 hrs by Western blotting; type: functional, cell-based
MDA-MB-231 [13] = test: Induction of apoptosis in human MDA-MB-231 cells assessed as caspase-3 processing at 3 nM after 24 hrs by Western blotting; type: functional, cell-based
MDA-MB-231 [14] = test: Induction of apoptosis in human MDA-MB-231 cells assessed as cIAP2 degradation at 30 nM after 24 hrs by Western blotting; type: functional, cell-based
MDA-MB-231 [15] = test: Induction of apoptosis in human MDA-MB-231 cells assessed as caspase-3 processing at 30 nM after 24 hrs by Western blotting; type: functional, cell-based
MDA-MB-231 [16] = test: Induction of apoptosis in human MDA-MB-231 cells assessed as PARP cleavage at 30 nM after 24 hrs by Western blotting; type: functional, cell-based
MDA-MB-231 [17] = test: Drug uptake in human MDA-MB-231 cells assessed as intracellular concentration at 300 nM after 3 hrs by LC-MS/MS; type: ADME, cell-based; conditions: mda-mb-231, 3 h, 0.3 µM
Mus musculus [18] = test: Toxicity in SCID mouse xenografted with human MDA-MB-231 cells assessed as weight loss at […], iv administered on day 2 and 9; type: organism-based; parameters: dose 7.5 mg/kg, route intravenous; conditions: in vivo
MDA-MB-231 [19] = test: Induction of apoptosis in human MDA-MB-231 cells assessed as cIAP2 degradation at 10 nM after 24 hrs by Western blotting; type: functional, cell-based
MDA-MB-231 [20] = test: Induction of apoptosis in human MDA-MB-231 cells assessed as cIAP1 degradation at 10 nM after 24 hrs by Western blotting; type: functional, cell-based
MDA-MB-231 [21] = test: Induction of apoptosis in human MDA-MB-231 cells assessed as caspase-3 processing at 10 nM after 24 hrs by Western blotting; type: functional, cell-based
MDA-MB-231 [22] = test: Drug uptake in human MDA-MB-231 cells assessed as intracellular concentration at 300 nM after 1 min by LC-MS/MS; type: ADME, cell-based; conditions: mda-mb-231, 1 min, 0.3 µM
[23] = target: T2, Baculoviral IAP repeat-containing protein 2 (Homo sapiens, UniProt Q13490); test: Binding affinity to human cIAP1 BIR3 domain after 2 to 3 hrs by fluorescence polarization-based assay
[24] = target: T2, Baculoviral IAP repeat-containing protein 2; test: Competitive inhibition of human cIAP1 BIR3 domain after 2 to 3 hrs by fluorescence polarization assay
[25] = target: T2, Baculoviral IAP repeat-containing protein 2; test: Competitive inhibition of human cIAP1BIR2-BIR3 domain after 2 to 3 hrs by fluorescence polarization assay
[26] = target: T2, Baculoviral IAP repeat-containing protein 2; test: Binding affinity to human cIAP1 BIR2-BIR3 domain after 2 to 3 hrs by fluorescence polarization-based assay

In the case of `CC(=O)N[C@@H](Cc1c[nH]c2ccccc12)C(=O)N[C@H]1CCCC[C@H]2CC[C@@H](C(=O)N[C@@H](c3ccccc3)c3cn(CCCCc4ccc(CCCCn5cc([C@@H](NC(=O)[C@@H]6CC[C@@H]7CCCC[C@H](NC(=O)[C@H](Cc8c[nH]c9ccccc89)NC(C)=O)C(=O)N76)c6ccccc6)nn5)cc4)nn3)N2C1=O`, the IC50 [1] is reported as > 50000 nM, the IC50 [2] is reported as > 50000 nM and the Ki [3] is reported as > 10000 nM. The Ki [4] was > 10000 nM and the IC50 (MDA-MB-231 [5]) was > 100000 nM.

With `CN[C@@H](C)C(=O)N[C@H]1CCCC[C@H]2CC[C@@H](C(=O)N[C@@H](c3ccccc3)c3cn(CCCCCOCCCCCn4cc([C@@H](NC(=O)[C@@H]5CC[C@@H]6CCCC[C@H](NC(=O)[C@H](C)NC)C(=O)N65)c5ccccc5)nn4)nn3)N2C1=O` the Activity (MDA-MB-231 [6]) was 269 mm3, the Activity (MDA-MB-231 [7]) was “Dose-dependent effect” and the Activity (Mus musculus [8]) was “Toxic”. For the same compound, the inhibition (MDA-MB-231 [9]) was “Active”.

`CN[C@@H](C)C(=O)N[C@H]1CCCC[C@H]2CC[C@@H](C(=O)N[C@@H](c3ccccc3)c3cn(CCCCCCc4ccc(CCCCCCn5cc([C@@H](NC(=O)[C@@H]6CC[C@@H]7CCCC[C@H](NC(=O)[C@H](C)NC)C(=O)N76)c6ccccc6)nn5)cc4)nn3)N2C1=O` was tested, and the Activity (MDA-MB-231 [10]) was “Active”, the Activity (MDA-MB-231 [11]) was “Active” and the Activity (MDA-MB-231 [12]) was “Active”. The Activity (MDA-MB-231 [13]) was “Active”.

With `CN[C@@H](C)C(=O)N[C@H]1CCCC[C@H]2CC[C@@H](C(=O)N[C@@H](c3ccccc3)c3cn(CCc4ccc(CCn5cc([C@@H](NC(=O)[C@@H]6CC[C@@H]7CCCC[C@H](NC(=O)[C@H](C)NC)C(=O)N76)c6ccccc6)nn5)cc4)nn3)N2C1=O` the Activity (MDA-MB-231 [14]) was “Active”, the Activity (MDA-MB-231 [15]) was “inactive” and the Activity (MDA-MB-231 [16]) was “inactive”. The Drug uptake (MDA-MB-231 [17]) was 67.7 nM.

With `CC(=O)O[C@@]12CO[C@@H]1C[C@H](O)[C@@]1(C)C(=O)[C@H](O)C3=C(C)[C@@H](OC(=O)[C@H](O)[C@@H](NC(=O)OC(C)(C)C)c4ccccc4)C[C@@](O)([C@@H](OC(=O)c4ccccc4)[C@H]21)C3(C)C.O.O.O` [DOCETAXEL] the Activity (Mus musculus [18]) was “Toxic”.

With `CN[C@@H](C)C(=O)N[C@H]1CCCC[C@H]2CC[C@@H](C(=O)N[C@@H](c3ccccc3)c3cn(CCCc4ccc(CCCn5cc([C@@H](NC(=O)[C@@H]6CC[C@@H]7CCCC[C@H](NC(=O)[C@H](C)NC)C(=O)N76)c6ccccc6)nn5)cc4)nn3)N2C1=O` the Activity (MDA-MB-231 [19]) was “Active”, the Activity (MDA-MB-231 [12]) was “Active” and the Activity (MDA-MB-231 [20]) was “Active”. For the same compound, the Activity (MDA-MB-231 [21]) was “Active”.

For `CN[C@@H](C)C(=O)N[C@H]1CCCC[C@H]2CC[C@@H](C(=O)N[C@@H](c3ccccc3)c3cn(Cc4ccc(Cn5cc([C@@H](NC(=O)[C@@H]6CC[C@@H]7CCCC[C@H](NC(=O)[C@H](C)NC)C(=O)N76)c6ccccc6)nn5)cc4)nn3)N2C1=O`, the Drug uptake (MDA-MB-231 [22]) was 21.2 nM, the Activity (MDA-MB-231 [15]) was “inactive” and the Activity (MDA-MB-231 [16]) was “inactive”. For the same compound, the Drug uptake (MDA-MB-231 [17]) was 75.2 nM.

`CN[C@@H](C)C(=O)N[C@H]1CCCC[C@H]2CC[C@@H](C(=O)N[C@@H](c3ccccc3)c3cn(CCOCCOCCOCCn4cc([C@@H](NC(=O)[C@@H]5CC[C@@H]6CCCC[C@H](NC(=O)[C@H](C)NC)C(=O)N65)c5ccccc5)nn4)nn3)N2C1=O` was tested, and the Drug uptake (MDA-MB-231 [22]) was 6.7 nM and the Drug uptake (MDA-MB-231 [17]) was 7.3 nM.

With `CN[C@@H](C)C(=O)N[C@H]1CCCC[C@H]2CC[C@@H](C(=O)N[C@@H](c3ccccc3)c3cn(CCCCc4ccc(CCCCn5cc([C@@H](NC(=O)[C@@H]6CC[C@@H]7CCCC[C@H](NC(=O)[C@H](C)NC)C(=O)N76)c6ccccc6)nn5)cc4)nn3)N2C1=O` the Ki [23] was < 1 nM, the IC50 [24] was 4.6 nM and the Activity (MDA-MB-231 [10]) was “Active”. For the same compound, the Drug uptake (MDA-MB-231 [22]) was 106 nM, the Activity (MDA-MB-231 [11]) was “Active” and the IC50 [25] was 5.7 nM. For the same compound, the Activity (MDA-MB-231 [12]) was “Active”, the Activity (MDA-MB-231 [13]) was “Active” and the Ki [26] was 1.5 nM. The Drug uptake (MDA-MB-231 [17]) was 541 nM and the IC50 (MDA-MB-231 [5]) was 3.3 nM.
